Patent publication US8198352B2, “High purity monoalkyltin compounds and uses thereof” (Arkema France, priority 2008, dated 2012)

Experiments:
[1] = dihydropyridine-based compound alone, well known; cited from earlier work
rat, Wistar outbred = test: Example AA: 14-day oral (diet) dose-range toxicity study; type: in vivo; settings: via the diet, 14 consecutive days
Text: The aim of this study is to select appropriate dose-levels for the main study.
Materials and Methods: • Groups: one control group and four test groups (4 males and 4 female per group) administered with different dose levels of the test substance; • Housing: 2 rats/sex/cage, macrolon cages; • Species: rat, Wistar outbred, Charles River Wiga GmbH, 9-10 weeks of age at start; • Carrier: Commercial rodent diet (Rat & Mouse No. 3 Breeding diet, RM3), ad libitum; • Treatment: Administration via the diet during 14 consecutive days; one batch of test diets is prepared shortly before initiation of treatment and stored in a freezer/refrigerator; the feed in the animal feeders is refreshed twice per week; • Clinical observations: general observations (all rats): daily; morbidity is checked again in the afternoon; • Body weight: at least once pretest, twice per week from the start of treatment (for the last time, on the day of scheduled necropsy); • Food consumption: twice weekly per cage (2 rats/cage) from the start of treatment; • Water consumption: visual inspection of the drinking bottles; • Pathology: • macroscopic examination (all rats); • weighing the following organs of all the surviving rats: kidneys, liver, spleen, testes, thymus; • preservation: the weighed organs are preserved in formalin and discarded when the results of the subsequent 90-day study indicate non need for microscopy on tissues from the 14-day study;
(§1) On each day of analysis, calibration solutions are prepared by spiking rodent diet with a stock solution of the organotin compound followed by derivatisation with sodium tetraethyl borate, in order to derivatise the octyltin compounds to the corresponding octyltin-ethyl compounds, with simultaneous extraction of the derivatised compounds into hexane.
(§2) The concentration of the test substance in diet is then determined by GC-MS of the hexane extracts.

wistar rats = test: Example AB: reproduction/developmental toxicity screening test (OECD 421); type: in vivo, rat
Text: The objective of this study is to assess whether octyltin tris (2-ethylexylmercaptoacetate) causes adverse effects on reproduction and/or development of wistar rats. This study was preceded by a dose-range finding study (see Example AA).
Materials and Methods: • Groups: one control group and three test groups (12 males and 12 female per group) administered with different dose levels of the test substance; • Housing: Pre-mating (PM): 4 rats/sex/cage, macrolon cages; • Mating (M): 1 male and 1 female per cage; • Gestation (G) and lactation: 1 rat/sex/cage, macrolon cages; • Species: rat, Wistar outbred, Charles River Wiga GmbH, 9-10 weeks of age at start; • Carrier: Commercial rodent diet (Rat & Mouse No. 3 Breeding diet, RM3), ad libitum; • Treatment: Administration via the diet during 14 consecutive days premating; during 14 consecutive days mating, gestation and lactation up to 4 days (males are given the test substance in the diet until sacrifice at the end of the mating period); • one or two batches of test diets are prepared shortly before initiation of treatment and stored in a freezer/refrigerator; the feed in the animal feeders is refreshed once per week; • Clinical observations: general clinical observations (all rats): daily; morbidity is checked again in the afternoon; • Body weight: at least once pretest, males and females, premating and mating weekly; • Food consumption: males and females, premating and mating weekly; for female during gestation: GD 0, 7, 14 and 21 during lactation; PN 1 and 4; • Pups: sex, body, weight, number of live and dead pups, clinical signs PN 1 and 4; • Water consumption: visual inspection of the drinking bottles; • Pathology: • macroscopic examination (all rats); • count: number of implantations (uterus) and corpora lutea (ovaria); • weighing the following organs of all the surviving rats: testes (males), epididymes […], thymus; • preservation all animals): testes, epididymes, seminal vesicles, prostate, ovaries, uterus, thymus and organs and tissues showing macroscopic abnormalities; the organs are preserved in formalin and discarded when the results of the OECD 421 study indicate non need for microscopy; • Histopathology: preserved tissues for control and high level only […].
as §1, §2

[2] = rat, 200, 500 and 1250 mg/kg diet

CCCCCCCCCCCCOC(=O)C1=C(C)NC(C)=C(C(=O)OCCCCCCCCCCCC)C1 [DHP, dihydro-1,4-dimethyl-2,6-dicarbododecyloxy-3,5-pyridine]
result in dynamic thermal stability (colour) test [1]: poor results

CCCCCCC[CH2][Sn]([S]CC(=O)OCC(CC)CCCC)([S]CC(=O)OCC(CC)CCCC)[S]CC(=O)OCC(CC)CCCC (centres unmarked) [octyltin tris (2-ethylexylmercaptoacetate)]
abnormalities at necropsy (rat, Wistar outbred): no abnormalities were observed at necropsy | change in body weight and food consumption (rat, Wistar outbred): no change in body weight and food consumption | clinical abnormalities (rat, Wistar outbred): no clinical abnormalities were observed | effects on organ weights (rat, Wistar outbred): no effects were observed on organ weights | NOAEL expressed per body weight (wistar rats; female animals): ~96 mg/kg body weight/day | NOAEL expressed per body weight (wistar rats; male animals): approximately 72 mg/kg body weight/day | effects on pre- and post-natal development (wistar rats; [2]): No effects were observed | effects on reproduction organs (wistar rats; [2]): No effects were observed | tolerability of oral administration (wistar rats; [2]): well tolerated at all dose-levels | no averse effect level (NOAEL) for parental toxicity, fertility and development (wistar rats; rat, oral via the diet): 1250 mg/kg diet
